In one assay the target is T1, ICE (Homo sapiens, UniProt P29466).
T1 sequence (P29466 120-297 limits assumed): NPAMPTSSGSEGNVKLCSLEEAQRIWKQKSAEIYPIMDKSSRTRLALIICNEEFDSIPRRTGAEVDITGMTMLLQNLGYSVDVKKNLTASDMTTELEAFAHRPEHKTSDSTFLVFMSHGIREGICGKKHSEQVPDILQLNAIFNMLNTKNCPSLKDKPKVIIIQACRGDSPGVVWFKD
T1 sequence (P29466 317-404 limits assumed): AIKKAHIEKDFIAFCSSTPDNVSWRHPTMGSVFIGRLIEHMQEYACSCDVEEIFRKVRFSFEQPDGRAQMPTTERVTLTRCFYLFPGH
Nature of the assay: Enzyme assay with UV-visible substrate (visible ICE assay, Succinyl-Tyr-Val-Ala-Asp-pNitroanilide). The assay is classed as biochemical. The gist of the method:
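Buffer, ICE and inhibitor in DMSO are combined and held 15 min at room temperature. Succinyl-Tyr-Val-Ala-Asp-pNA is then added and absorbance at 405-603 nm tracked for 20 min at 37° C.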

Assay [1] deals with IL-1β, human peripheral blood mononuclear cells (PBMC). Briefly: PBMC cell assay: IL-1β assay with human PBMC or enriched adherent mononuclear cells, LPS-stimulated. It counts as cell-based. From the text:
IL-1β Assay with a Mixed Population of Human Peripheral Blood Mononuclear Cells (PBMC) or Enriched Adherent Mononuclear Cells
Processing of pre-IL-1β by ICE can be measured in cell culture using a variety of cell sources. Human PBMC obtained from healthy donors provides a mixed population of lymphocyte subtypes and mononuclear cells that produce a spectrum of interleukins and cytokines in response to many classes of physiological stimulators. Adherent mononuclear cells from PBMC provides an enriched source of normal monocytes for selective studies of cytokine production by activated cells.
An initial dilution series of test compound in DMSO or ethanol is prepared, with a subsequent dilution into RPMI-10% FBS media (containing 2 mM L-glutamine, 10 mM HEPES, 50 U and 50 ug/ml pen/strep) respectively to yield drugs at 4× the final test concentration containing 0.4% DMSO or 0.4% ethanol. The final concentration of DMSO is 0.1% for all drug dilutions. A concentration titration which brackets the apparent Ki for a test compound determined in an ICE inhibition assay is generally used for the primary compound screen.
Generally 5-6 compound dilutions are tested and the cellular component of the assay is performed in duplicate, with duplicate ELISA determinations on each cell culture supernatant.
PBMC Isolation and IL-1 Assay:
Buffy coat cells isolated from one pint human blood (yielding 40-45 ml final volume plasma plus cells) are diluted with media to 80 ml and LeukoPREP separation tubes (Becton Dickinson) are each overlaid with 10 ml of cell suspension. After 15 min centrifugation at 1500-1800×g, the plasma/media layer is aspirated and then the mononuclear cell layer is collected with a Pasteur pipette and transferred to a 15 ml conical centrifuge tube (Corning). Media is added to bring the volume to 15 ml, gently mix the cells by inversion and centrifuge at 300×g for 15 min. Resuspend the PBMC pellet in a small volume of media, count cells and adjust to 6×10^6 cells/ml.
For the cellular assay, 1.0 ml of the cell suspension is added to each well of a 24-well flat bottom tissue culture plate (Corning), 0.5 ml test compound dilution and 0.5 ml LPS solution (Sigma #L-3012; 20 ng/ml solution prepared in complete RPMI media; final LPS concentration 5 ng/ml). The 0.5 ml additions of test compound and LPS are usually sufficient to mix the contents of the wells. Three control mixtures are run per experiment, with either LPS alone, solvent vehicle control, and/or additional media to adjust the final culture volume to 2.0 ml. The cell cultures are incubated for 16-18 hr at 37° C. in the presence of 5% CO2.
At the end of the incubation period, cells are harvested and transferred to 15 ml conical centrifuge tubes. After centrifugation for 10 min at 200×g, supernatants are harvested and transferred to 1.5 ml Eppendorf tubes. It may be noted that the cell pellet may be utilized for a biochemical evaluation of pre-IL-1β and/or mature IL-1β content in cytosol extracts by western blotting or ELISA with pre-IL-1β specific antisera.
Isolation of Adherent Mononuclear Cells:
PBMC are isolated and prepared as described above. Media (1.0 ml) is first added to wells followed by 0.5 ml of the PBMC suspension. After a one hour incubation, plates are gently shaken and nonadherent cells aspirated from each well. Wells are then gently washed three times with 1.0 ml of media and final resuspended in 1.0 ml media. The enrichment for adherent cells generally yields 2.5−3.0×10^5 cells per well. The addition of test compounds, LPS, cell incubation conditions and processing of supernatants proceeds as described above.
We have used Quantikine kits (R&D Systems) for measurement of mature IL-1β. Assays are performed according to the manufacturer's directions. Mature IL-1β levels of about 1-3 ng/ml in both PBMC and adherent mononuclear cell positive controls are observed. […]

Where [2] appears, read: Homo sapiens, PBMC, * = values obtained upon reassay.
Setting [3] is: * = values obtained upon reassay.

Some results are limits rather than exact numbers.

With `O=C[C@H](CC(=O)O)NC(=O)[C@@H]1CCCN2C(=O)CC[C@H](NC(=O)c3ccc4ccccc4c3O)C(=O)N12` [Compound 449], the affinity at ICE (Table 5) corresponds to a Ki of 12 nM. The compound further registered a concentration for half-maximal inhibition (IC50) in assay [1] (setting [2]) of 1500 nM.
Taken in the same sequence, the figures for `O=C[C@H](CC(=O)O)NC(=O)[C@@H]1CCCN2C(=O)CC[C@H](NC(=O)c3ccc(F)c(F)c3)C(=O)N12` [Compound 458] were 20 nM and 2900 nM.
Consider `O=C[C@H](CC(=O)O)NC(=O)[C@@H]1CCCN2C(=O)CC[C@H](NC(=O)c3ccc(Cl)c(Cl)c3)C(=O)N12` [Compound 464], for which, on ICE (Table 5), the Ki stood at 2.5 nM. For the same compound, the IC50 in assay [1] (setting [2]) came to 1000 nM.
`COc1cccc(C(=O)N[C@H]2CCC(=O)N3CCC[C@@H](C(=O)N[C@H](C=O)CC(=O)O)N3C2=O)c1` [Compound 451] yielded a Ki on ICE (Table 5) of 4 nM. Further, the IC50 in assay [1] (setting [2]) turned out to be 1800 nM.
For `CC(C)CC(=O)N1C[C@H](NC(=O)c2ccccc2)C(=O)N(CC(=O)N[C@H](C=O)CC(=O)O)c2ccccc21` [Compound 605f, (3S)-3-[(3S)-2-Oxo-3-benzoylamino-5-(3-methylbutyryl)-2,3,4,5-tetrahydro-1H-1,5-benzodiazepin-1-acetylamino]-4-oxo-butyric acid], in that order: 475 nM and 12500 nM.
For the compound `COC(=O)C(=O)N1C[C@H](NC(=O)c2ccccc2)C(=O)N(CC(=O)N[C@H](C=O)CC(=O)O)c2ccccc21` [Compound 605h, (3S)-3-[(3S)-2-oxo-3-benzoylamino-5-methyloxalkyl-2,3,4,5-tetrahydro-1H-1,5-benzodiazepin-1-acetylamino]-4-oxo-butyric acid], on ICE (Table 5), the Ki came to 460 nM. In addition, the IC50 in assay [1] (setting [2]) is greater than 25000 nM.
Compound `O=C[C@H](CC(=O)O)NC(=O)[C@@H]1CCCN2C(=O)CC[C@H](NC(=O)c3ccc(CO)cc3)C(=O)N12` [Compound 479] returned a Ki at ICE (Table 5) of 15 nM. In assay [1] (setting [2]), this compound had an IC50 of 900 nM.
At ICE (Table 17), `CNCC(=O)N1C[C@H](NC(=O)c2cccc3ccccc23)C(=O)N(CC(=O)N[C@H](C=O)CC(=O)O)c2ccccc21` [Compound 650, (3S)-3-[(3S)-2-Oxo-3-(1-naphthoyl)amino-5-(2-methylamino)acetyl-2,3,4,5-tetrahydro-1H-1,5-benzodiazepine-1-acetylamino]-4-oxo-butyric acid] came in with a Ki of 550 nM. The compound further registered an IC50 in assay [1] (Homo sapiens, PBMC, Table 17) of 4000 nM.
`CC(=O)CC(=O)N1C[C@H](NC(=O)c2ccccc2)C(=O)N(CC(=O)N[C@H](C=O)CC(=O)O)c2ccccc21` [Compound 605g, (3S)-3-[(3S)-2-Oxo-3-benzoylamino-5-acetoacetyl-2,3,4,5-tetrahydro-1H-1,5-benzodiazepin-1-acetylamino]-4-oxo-butyric acid] had a Ki on ICE (Table 5) of 165 nM. Besides, in assay [1] (setting [2]), the IC50 is 22500 nM.
In turn, `CC(=O)Nc1ccccc1C(=O)N[C@H]1CCC(=O)N2CCC[C@@H](C(=O)N[C@H](C=O)CC(=O)O)N2C1=O` [Compound 430] gave a Ki at ICE (Table 5) of 60 nM. In assay [1] (setting [2]), this compound came in with an IC50 greater than 8000 nM.
`O=C[C@@H](CCC(=O)O)NC(=O)[C@@H]1CCCN2C(=O)CC[C@H](NC(=O)c3ccccc3)C(=O)N12` [Compound 238e, [4R,(1S,9S)]-4-[9-(Benzoylamino)-6,10-dioxo-1,2,3,4,7,8,9,10-octahydro-6H-pyridazino-[1,2-a][1,2]diazepine-1-carboxamido]-5-oxopentanoic acid]: affinity at ICE (Table 5) was put at a Ki of 500 nM. The IC50 in assay [1] (setting [2]) stood at 4250 nM.
Turning to `CCS(=O)(=O)N[C@H]1CCC(=O)N2CCC[C@@H](C(=O)N[C@H](C=O)CC(=O)O)N2C1=O` [Compound 421], the Ki on ICE (Table 5) was found to be 200 nM. Moreover, the values for the IC50 in assay [1] (setting [3]) and in assay [1] (setting [2]) were 4600 nM and 4300 nM, respectively.
Turning to `O=C(O)C[C@H](NC(=O)CN1C(=O)[C@@H](NC(=O)CCc2ccccc2)CN(C(=O)CCc2ccccc2)c2ccccc21)C(=O)c1nc2cc(Cl)cc(Cl)c2o1` [Compound 609a, (3S)-3-[(3S)-2-Oxo-3-(3-phenylpropionylamino)-5-(3-phenylpropionyl)-2,3,4,5-tetrahydro-1H-1,5-benzodiazepin-1-acetylamino]-4-(5,7-dichlorobenzoxazol-2-yl)-4-oxo-butyric acid], the Ki at ICE (Table 5) stood at 114 nM. The same compound came in with an IC50 in assay [1] (setting [2]) greater than 30000 nM.
`CC(=O)C(=O)N1C[C@H](NC(=O)c2ccccc2)C(=O)N(CC(=O)N[C@H](C=O)CC(=O)O)c2ccccc21` [Compound 605i, (3S)-3-[(3S)-2-Oxo-3-benzoylamino-5-acetylcarbonyl-2,3,4,5-tetrahydro-1H-1,5-benzodiazepin-1-acetylamino]-4-oxo-butyric acid] returned a Ki on ICE (Table 5) of 680 nM. This compound gave an IC50 in assay [1] (setting [2]) greater than 20000 nM.
Compound `C[C@H]1CC(=O)N2CCC[C@@H](C(=O)N[C@H](C=O)CC(=O)O)N2C(=O)[C@H]1NC(=O)c1ccccc1` [Compound 257, [3S(1S,8S,9S)]3-(9-benzoylamino-6,10-dioxo-8-methyl-1,2,3,4,7,8,9,10-octahydro-6H-pyridazino-[1,2-a][1,2]diazepine-1-carboxamido)-4-oxobutanoic acid] came in with a Ki on ICE (Table 5) of 13 nM. The IC50 in assay [1] (setting [3]) stood at 6600 nM; in assay [1] (setting [2]) it was 11000 nM.
At ICE (Table 5), `O=C[C@H](CC(=O)O)NC(=O)[C@@H]1CCCN2C(=O)CC[C@H](NC(=O)c3cc4ccccc4o3)C(=O)N12` [Compound 467] showed a Ki of 11 nM. For the same compound, in assay [1] (setting [2]), the IC50 came to 1900 nM.
For `O=C[C@H](CC(=O)O)NC(=O)[C@@H]1CCCN2C(=O)CC[C@H](NC(=O)c3ccc(OC(=O)c4ccccc4)cc3)C(=O)N12` [Compound 491], in that order: 5 nM and 2500 nM.
In turn, `O=C[C@H](CC(=O)O)NC(=O)[C@@H]1CCCN2C(=O)CC[C@H](NC(=O)C3CCCCC3)C(=O)N12` [Compound 426] returned a Ki on ICE (Table 5) of 90 nM. Moreover, the IC50 in assay [1] (setting [3]) was 2500 nM; in assay [1] (setting [2]), 4500 nM.
`CC(=O)N1C[C@H](NC(=O)c2ccccc2)C(=O)N(CC(=O)N[C@@H](CC(=O)O)C(=O)c2nc3cc(Cl)cc(Cl)c3o2)c2ccccc21` [Compound 609b, (3S)-3-[(3S)-2-Oxo-3-benzoylamino-5-acetyl-2,3,4,5-tetrahydro-1H-1,5-benzodiazepin-1-acetylamino]-4-(5,7-dichlorobenzoxazol-2-yl)-4-oxo-butyric acid] came in with a Ki at ICE (Table 5) of 27 nM. This compound also returned an IC50 in assay [1] (setting [2]) greater than 20000 nM.

Source of the values: patent US20120165319A1, “INHIBITORS OF INTERLEUKIN-1 BETA CONVERTING ENZYME” (VERTEX PHARMACEUTICALS INCORPORATED, priority 1995, published 2012).
